Laboratory results from publication PMC2676116 (Molecular cancer therapeutics, 2009).

Columns and labels:
Tdp1 [1] = target: T1, Tdp1 (Homo sapiens, UniProt Q9NUW8); settings: cited from earlier work
Tdp1 [2] = target: T1, Tdp1; assay: Secondary radiolabel gel-based assay; type: biochemical; settings: Fig. 5B & C
Tdp1 [3] = target: T1, Tdp1; assay: Tdp1 AlphaScreen HTS assay; type: biochemical; settings: for Tdp1 inhibition (in words): AlphaScreen primary / follow-up HTS assay, Fig. 5C
CD-45 associated PTP = settings: cited from earlier work
H493R Tdp1 mutant = H493R Tdp1 mutant (Homo sapiens, UniProt Q9NUW8, H493R); assay: SCAN1 Tdp1 mutant covalent Tdp1-DNA intermediate; type: biochemical; settings: for accumulation of the covalent Tdp1-DNA intermediate: 10 μM concentration, H493R Tdp1 100 nM
H493R Tdp1 mutant, sequence (Q9NUW8 whole entry H493R): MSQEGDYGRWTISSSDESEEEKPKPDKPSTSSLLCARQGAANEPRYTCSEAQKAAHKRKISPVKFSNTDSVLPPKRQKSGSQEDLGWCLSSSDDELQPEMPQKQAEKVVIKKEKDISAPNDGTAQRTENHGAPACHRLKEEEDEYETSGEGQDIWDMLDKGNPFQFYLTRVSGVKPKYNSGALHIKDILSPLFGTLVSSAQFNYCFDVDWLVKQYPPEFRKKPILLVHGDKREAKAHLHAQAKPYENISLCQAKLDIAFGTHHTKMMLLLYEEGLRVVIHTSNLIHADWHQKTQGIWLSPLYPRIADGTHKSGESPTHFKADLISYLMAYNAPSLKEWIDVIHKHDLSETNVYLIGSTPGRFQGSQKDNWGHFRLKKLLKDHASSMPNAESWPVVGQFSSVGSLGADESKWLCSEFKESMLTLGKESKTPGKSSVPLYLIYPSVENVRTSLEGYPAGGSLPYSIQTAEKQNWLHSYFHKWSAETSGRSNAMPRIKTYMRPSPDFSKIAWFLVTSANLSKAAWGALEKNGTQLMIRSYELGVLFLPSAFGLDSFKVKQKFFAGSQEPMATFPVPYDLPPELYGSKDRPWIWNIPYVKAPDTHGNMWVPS

T1 sequence (Q9NUW8 whole entry): as the sequence (Q9NUW8 whole entry H493R) above, with R493H counted along it

Compound: [O]=[W](=[O])([O-])[O-] [tungstate]
- concentration at which Tdp1 is inhibited (in words) (Tdp1 [1]): millimolar concentrations

Compound: CN(N=O)c1ccc(O)c(O)c1 [methyl-3,4-dephostatin]
- Tdp1 inhibition (in words) (Tdp1 [2]): sub-micromolar concentration
- Tdp1 inhibition (in words) (Tdp1 [3]): sub-micromolar concentration
- inhibition of CD-45 associated PTP (CD-45 associated PTP): does not inhibit
- accumulation of the covalent Tdp1-DNA intermediate (H493R Tdp1 mutant): completely prevented

Compound: [O]=[V]([O-])([O-])[O-] [vanadate]
- Tdp1 inhibition potency (in words) (Tdp1 [3]; AlphaScreen assay, 384-well, Fig. 3C): inhibition in the sub-millimolar range
- concentration at which Tdp1 is inhibited (in words) (Tdp1 [1]): millimolar concentrations

Compound: N=C(N)c1ccc(-c2ccc(-c3ccc(C(=N)N)cc3)o2)cc1 [Furamidine, furamidine]
- concentration at which Tdp1 is inhibited (in words) (Tdp1 [1]): micromolar concentrations

Compound: CN(N=O)c1cc(O)ccc1O [dephostatin]
- Tdp1 inhibition (in words) (Tdp1 [2]): only a trace level of inhibition
- Tdp1 inhibition (in words) (Tdp1 [2]; listed as Dephostatin): only trace inhibition
- Tdp1 inhibition (in words) (Tdp1 [3]): only trace inhibition
- accumulation of the covalent Tdp1-DNA intermediate (H493R Tdp1 mutant): much weaker effect
- effect on binding of the Tdp1 DNA substrate (DNA trapping) (H493R Tdp1 mutant; SCAN1 Tdp1 mutant): almost no effect
